Data on two molecules can be found in patent publication US6022851A, “Lantibiotic related to actagardine, and processes for the preparation and use thereof” (priority 1997, dated 2000).

Where two headings read alike, the source gives them in different places.

Series [1] can be described thus: Solubility. In kind it is physicochemical. As to conditions: in methanol and water.
The nature of series [2]: Stability in solution. The format is physicochemical.
The nature of series [3]: Tolerability / toxicity.
Series [4] has as its system E. Coli. The format is cell-based. The following applies: incubation time 24 h. The text has this: (§1) Tables 4 to 6 show the in-vitro antibacterial activity (MIC values[μg/ml]) of the actagardine (Acta) and of the compounds according to the invention.
The test system of series [5] is S. aureus Exp54146. In kind it is cell-based. As to conditions: incubation time 24 h.
Description: as §1

Series [6] concerns S. aureus SG511. In kind it is cell-based. The following applies: incubation time 24 h.
Description: as §1

The subject of series [7] is S. pyogenes A561. The format is cell-based. As to conditions: incubation time 24 h.
Description: as §1

The subject of series [8] is E. faecalis 02D2DU18. Description: in-vitro antibacterial activity (MIC), incubation time 18 h. The format is cell-based. As to conditions: incubation time 18 h.
Description: as §1

Series [9] has as its system E. faecalis 02D2HM9. Described as above. The format is cell-based. As to conditions: incubation time 18 h.
Description: as §1

The test system of series [10] is E. faecalis 02D2HT10. Described as above. In kind it is cell-based. As to conditions: incubation time 18 h.
Description: as §1

In series [11] the test system is E. faecalis 02D2UC5. Described as above. In kind it is cell-based. The following applies: incubation time 18 h.
Description: as §1

In series [12] the test system is S. aureus 011DU5. The series is described as above. The format is cell-based. The following applies: incubation time 18 h.
Description: as §1

For series [13], the system named is S. aureus 011HT18. The series is described as above. The format is cell-based. The following applies: incubation time 18 h.
Description: as §1

The test system of series [14] is S. aureus 011HT1. The description is as above. As to conditions: incubation time 18 h. In kind it is cell-based.
Description: as §1

For series [15], the system named is S. aureus 011HT3. The series is described as above. The format is cell-based. As to conditions: incubation time 18 h.
Description: as §1

The test system of series [16] is S. aureus 0121O64. The series is described as above. As to conditions: incubation time 18 h. In kind it is cell-based.
Description: as §1

Series [17] has as its system S. epidermidis 012GO20. Described as above. The format is cell-based. The following applies: incubation time 18 h.
Description: as §1

For series [18], the system named is S. epidermidis 012GO42. The series is described as above. The format is cell-based. The following applies: incubation time 18 h.
Description: as §1

The subject of series [19] is S. milleri 02milGR12. The description is as above. The format is cell-based. The following applies: incubation time 18 h.
Description: as §1

The subject of series [20] is S. mitis 02mitGR16. Described as above. In kind it is cell-based. As to conditions: incubation time 18 h.
Description: as §1

Series [21] deals with S. pneumoniae 030BI2. Described as above. The format is cell-based. The following applies: incubation time 18 h.
Description: as §1

The subject of series [22] is S. pyogenes 02A1FI6. Described as above. The format is cell-based. The following applies: incubation time 18 h.
Description: as §1

Series [23] relates to S. pyogenes 02A1UC1. The series is described as above. The format is cell-based. As to conditions: incubation time 18 h.
Description: as §1

In series [24] the test system is S. pyogenes O2A1SJ1. The series is described as above. In kind it is cell-based. As to conditions: incubation time 18 h.
Description: as §1

In series [25] the test system is Staph. coag. negative 012HT5. Described as above. The format is cell-based. As to conditions: incubation time 18 h.
Description: as §1

Series [26] deals with Strepto gr. G 02G0CB2. Described as above. In kind it is cell-based. The following applies: incubation time 18 h.
Description: as §1

As to `CC[C@H](C)[C@@H]1NC(=O)C2NC(=O)[C@H](CC(C)C)NC(=O)C(NC(=O)C3CSCC(NC(=O)[C@H](C)N)C(=O)N[C@@H](CO)C(=O)NCC(=O)N[C@@H](Cc4c[nH]c5ccccc45)C(=O)N[C@@H](C(C)C)C(=O)N3)C(C)SCC(NC(=O)[C@H](CCC(=O)O)NC1=O)C(=O)NCC(=O)NC1C(=O)N[C@@H](C(C)C)C(=O)N[C@@H]([C@@H](C)CC)C(=O)NC(CSC2C)C(=O)N[C@@H](C)C(=O)NC(C(=O)O)C[S+]([O-])C1C` (stereo partly shown) [Ala(0)-actagardine], the solubility entry in series [1] is “soluble”. Also, the stability result is given as “Stable” in series [2] (in neutral and mildly alkaline medium); “unstable” in series [2] (in strongly acidic and strongly alkaline solution). In addition, the “cytotoxic actions or other toxicities” value in series [3] is listed as “not observed”. Besides, the tolerability entry in series [3] (at the active concentration and above) was “good”.
On to “di-Boc-Lys(0)-actagardine [Boc--Lys--Acta]”, for which the MIC values is above 40 µg/mL in series [4]; 10 µg/mL in series [5]; 10 µg/mL in [6] (S. aureus SG511 + 10% serum); 2.5 µg/mL in [6] (S. aureus SG511); “<= 0.04 μg/ml” in series [7]; 10 µg/mL in series [8]. In addition, the MIC values is above 40 µg/mL in series [9]; above 40 µg/mL in [10]; 40 µg/mL in [11]; 40 µg/mL in series [12]; above 40 µg/mL in series [13]; 10 µg/mL in series [14]. Further, the MIC values was 20 µg/mL in [15] (S. aureus 011HT3 + 10% serum); 40 µg/mL in series [15] (S. aureus 011HT3 + 50% serum); 10 µg/mL in [15] (S. aureus 011HT3); above 40 µg/mL in series [16]; above 40 µg/mL in series [17]; above 40 µg/mL in series [18]. Besides, the MIC values is 5 µg/mL in series [19]; 5 µg/mL in [20]; 1.2 µg/mL in [21]; “<= 0.04 μg/ml” in series [22]; “<= 0.04 μg/ml” in series [23]; 0.08 µg/mL in series [24]. Besides, the MIC values in series [25] is above 40 µg/mL; in series [26], 2.5 µg/mL.
